The record followed here is ChEMBL document CHEMBL1255397, “Attenuation of cerebrospinal fluid inflammation by the nonbacteriolytic antibiotic daptomycin versus that by ceftriaxone in experimental pneumococcal meningitis” (Antimicrob Agents Chemother, 2010).

Data set [1] relates to Rattus norvegicus. Description: Toxicity in Streptococcus pneumoniae serotype 3 clinical isolate infected in Wistar rat assessed as decrease in CSF TNF-alpha concentration at 50 mg/kg, sc administered 18 hrs post infection measured after 2 to 6 hrs by microsphere-based multiplex assay. The class given is organism-based. Details: dose 50 mg/kg, route subcutaneous. Particulars: in vivo.

In data set [2] the test system is Rattus norvegicus. The data set can be described thus: Decrease in severity of cortical damage in Streptococcus pneumoniae serotype 3 clinical isolate infected in Wistar rat at 50 mg/kg, sc administered 18 hrs post infection measured after 2 to 6 hrs. In kind it is functional. Particulars: route subcutaneous.
The test system of the next data set is Streptococcus pneumoniae. Description: Antimicrobial activity against Streptococcus pneumoniae serotype 3 clinical isolate infected in Wistar rat assessed as cerebrospinal fluid bacterial titer at 50 mg/kg, sc administered 18 hrs post infection measured after 4 hrs. The class given is functional. The following applies: route subcutaneous.
Data set [3] deals with Rattus norvegicus. Description: Toxicity in Streptococcus pneumoniae serotype 3 clinical isolate infected in Wistar rat assessed as decrease in CSF IL-6 concentration at 50 mg/kg, sc administered 18 hrs post infection measured after 2 to 6 hrs by microsphere-based multiplex assay. The class given is organism-based. Set-up: dose 50 mg/kg, route subcutaneous. Particulars: in vivo.

Data set [4] has as its system Rattus norvegicus. The data set can be described thus: Toxicity in against Streptococcus pneumoniae serotype 3 clinical isolate infected in Wistar rat assessed as increase in CSF IL-18 concentration at 100 mg/kg, sc administered 18 hrs post infection measured after 2 to 6 hrs by microsphere-based multiplex assay. Particulars: in vivo. The class given is organism-based. Set-up: dose 100 mg/kg, route subcutaneous.

Data set [5] deals with Rattus norvegicus. Description: Toxicity in Streptococcus pneumoniae serotype 3 clinical isolate infected in Wistar rat assessed as decrease in CSF CXCL1 concentration at 50 mg/kg, sc administered 18 hrs post infection measured after 2 to 6 hrs by microsphere-based multiplex assay. The class given is organism-based. Details: dose 50 mg/kg, route subcutaneous. Particulars: in vivo.

Data set [6] deals with Rattus norvegicus. The data set can be described thus: Toxicity in Streptococcus pneumoniae serotype 3 clinical isolate infected in Wistar rat assessed as decrease in CSF MCP-1 concentration at 50 mg/kg, sc administered 18 hrs post infection measured after 2 to 6 hrs by microsphere-based multiplex assay. The class given is organism-based. Details: dose 50 mg/kg, route subcutaneous. Particulars: in vivo.

In data set [7] the test system is Rattus norvegicus. The data set can be described thus: Toxicity in Streptococcus pneumoniae serotype 3 clinical isolate infected in Wistar rat assessed as increase in CSF MIP-1alpha concentration at 100 mg/kg, sc administered 18 hrs post infection measured after 2 to 6 hrs by microsphere-based multiplex assay. The following applies: in vivo. Details: dose 100 mg/kg, route subcutaneous. The class given is organism-based.

The test system of data set [8] is Rattus norvegicus. Description: Toxicity in Streptococcus pneumoniae serotype 3 clinical isolate infected in Wistar rat assessed as decrease in CSF IL1-beta concentration at 100 mg/kg, sc administered 18 hrs post infection measured after 2 to 6 hrs by microsphere-based multiplex assay. The class given is organism-based. Set-up: dose 100 mg/kg, route subcutaneous. Particulars: in vivo.

Data set [9] concerns Rattus norvegicus. The data set can be described thus: Toxicity in Streptococcus pneumoniae serotype 3 clinical isolate infected in Wistar rat assessed as decrease in CSF MIP-1alpha concentration at 50 mg/kg, sc administered 18 hrs post infection measured after 2 to 6 hrs by microsphere-based multiplex assay. Set-up: dose 50 mg/kg, route subcutaneous. Particulars: in vivo. In kind it is organism-based.

Data set [10] concerns Rattus norvegicus. Description: Toxicity in Streptococcus pneumoniae serotype 3 clinical isolate infected in Wistar rat assessed as decrease in CSF IL-10 concentration at 50 mg/kg, sc administered 18 hrs post infection measured after 2 to 6 hrs by microsphere-based multiplex assay. In kind it is organism-based. Details: dose 50 mg/kg, route subcutaneous. The following applies: in vivo.

The subject of data set [11] is Rattus norvegicus. Description: Toxicity in Streptococcus pneumoniae serotype 3 clinical isolate infected in Wistar rat assessed as increase in CSF MCP-1 concentration at 100 mg/kg, sc administered 18 hrs post infection measured after 2 to 6 hrs by microsphere-based multiplex assay. The class given is organism-based. Set-up: dose 100 mg/kg, route subcutaneous. Particulars: in vivo.

Data set [12] relates to Rattus norvegicus. Description: Toxicity in Streptococcus pneumoniae serotype 3 clinical isolate infected in Wistar rat assessed as decrease in CSF IL-10 concentration at 100 mg/kg, sc administered 18 hrs post infection measured after 2 to 6 hrs by microsphere-based multiplex assay. In kind it is organism-based. Details: dose 100 mg/kg, route subcutaneous. The following applies: in vivo.

For data set [13], the system named is Rattus norvegicus. The data set can be described thus: Decrease in severity of cortical damage in Streptococcus pneumoniae serotype 3 clinical isolate infected in Wistar rat at 100 mg/kg, sc administered 18 hrs post infection measured after 2 to 6 hrs. In kind it is functional. Particulars: route subcutaneous.
For data set [14], the system named is Rattus norvegicus. The data set can be described thus: Toxicity in Streptococcus pneumoniae serotype 3 clinical isolate infected in Wistar rat assessed as decrease in CSF IL1-beta concentration at 50 mg/kg, sc administered 18 hrs post infection measured after 2 to 6 hrs by microsphere-based multiplex assay. Set-up: dose 50 mg/kg, route subcutaneous. Particulars: in vivo. The class given is organism-based.

For data set [15], the system named is Rattus norvegicus. Description: Toxicity in against Streptococcus pneumoniae serotype 3 clinical isolate infected in Wistar rat assessed as decrease in CSF IL-18 concentration at 50 mg/kg, sc administered 18 hrs post infection measured after 2 to 6 hrs by microsphere-based multiplex assay. In kind it is organism-based. Set-up: dose 50 mg/kg, route subcutaneous. Particulars: in vivo.

The test system of data set [16] is Rattus norvegicus. The data set can be described thus: Toxicity in Streptococcus pneumoniae serotype 3 clinical isolate infected in Wistar rat assessed as increase in CSF IL-18 concentration at 50 mg/kg, sc administered 18 hrs post infection measured after 2 to 6 hrs by microsphere-based multiplex assay. The class given is organism-based. Details: dose 50 mg/kg, route subcutaneous. Particulars: in vivo.

Take `CCCCCCCCCC(=O)N[C@@H](Cc1c[nH]c2ccccc12)C(=O)N[C@H](CC(N)=O)C(=O)N[C@@H](CC(=O)O)C(=O)N[C@@H]1C(=O)NCC(=O)N[C@@H](CCCN)C(=O)N[C@@H](CC(=O)O)C(=O)N[C@H](C)C(=O)N[C@@H](CC(=O)O)C(=O)NCC(=O)N[C@H](CO)C(=O)N[C@@H]([C@H](C)CC(=O)O)C(=O)N[C@@H](CC(=O)c2ccccc2N)C(=O)O[C@@H]1C`: the Activity result in the data set on Rattus norvegicus [1] was “Non-toxic”; in the data set on Rattus norvegicus [3] it was “Non-toxic”; in the data set on Rattus norvegicus [4], “Toxic”; with Rattus norvegicus [5] it was “Non-toxic”. The compound also registered an inhibition in vivo at 50 mg/kg in the data set with Rattus norvegicus [2] of 0.13%. Further, the log10CFU/ml in the data set with Streptococcus pneumoniae is under 1000 CFU/ml.

As for `CO/N=C(\C(=O)N[C@@H]1C(=O)N2C(C(=O)O)=C(CSc3nc(=O)c(=O)[nH]n3C)CS[C@H]12)c1csc(N)n1` [CEFTRIAXONE], the Activity entry in the data set on Rattus norvegicus [6] is reported as “Non-toxic”; in the data set on Rattus norvegicus [7] it was “Toxic”; with Rattus norvegicus [8] it was “Toxic”; with Rattus norvegicus [9] it was “Non-toxic”; in the data set with Rattus norvegicus [10] it was “Non-toxic”; with Rattus norvegicus [11], “Toxic”. Moreover, the Activity result was “Toxic” in the data set with Rattus norvegicus [12], “Non-toxic” in the data set on Rattus norvegicus [14], “Non-toxic” in the data set with Rattus norvegicus [15] and “Toxic” in the data set on Rattus norvegicus [16]. The compound also showed an inhibition in vivo at 100 mg/kg in the data set with Rattus norvegicus [13] of 4.7%.
